Earlier results on two compounds are cited in publication PMC6271893, “In Vitro Antioxidant and Cytotoxic Activity of Some Synthetic Riparin-Derived Compounds” (Molecules, 2014).

The test system of the series is larynx carcinoma cell line HEP-2. The arrangement: method as in PMID 23569415. Conditions: cited from earlier work.

≈ marks a conversion by molar mass, not a printed value.

For the compound heyneanine, the “IC50 on HEP-2” value is 689.45 mg/L.
For `CC[C@H]1CC2CN3CCc4c([nH]c5ccc(OC)cc45)[C@](C(=O)OC)(C2)[C@H]13` (stereo in doubt) [voacangine], the “IC50 on HEP-2” value is 159.33 mg/L (≈ 432 µM).
